ChEMBL document CHEMBL5131424, “Synthesis and evaluation of antibacterial and trypanocidal activity of derivatives of monensin A” (Bioorg Med Chem Lett, 2022)
In brackets after ≈: the same amount, converted by molar mass.

Tests used:
HL-60 = test: (§1) Cytotoxicity against human HL-60 cells assessed as reduction in cell viability measured after 24 hrs by resazurin dye based assay; type: toxicity; conditions: hl-60, 24 h
[1] = as §1; type: toxicity; conditions: HL-60 cells
Staphylococcus aureus [2] = test: Antibacterial activity against Staphylococcus aureus ATCC 6538; type: functional
Escherichia coli [3] = test: Antibacterial activity against Escherichia coli ATCC 25922; type: functional
Escherichia coli [4] = test: Antibacterial activity against Escherichia coli NCTC 10538; type: functional
[5] = Selectivity ratio of GI50 for cytotoxicity against human HL-60 cells to GI50 for antitrypanosomal activity against bloodstream form of Trypanosoma brucei clone 427-221a; type: toxicity, cell-based; conditions: read-out: RatioGI50
Pseudomonas aeruginosa [6] = test: Antibacterial activity against Pseudomonas aeruginosa ATCC 15442; type: functional
[7] = test system: Staphylococcus epidermidis; test: Antibacterial activity against Staphylococcus epidermidis 845/19; type: functional
[8] = test system: Staphylococcus epidermidis; test: Antibacterial activity against Staphylococcus epidermidis 825/19; type: functional
[9] = test system: Staphylococcus epidermidis; test: Antibacterial activity against Staphylococcus epidermidis 848/19; type: functional
[10] = test system: Staphylococcus epidermidis; test: Antibacterial activity against Staphylococcus epidermidis 834/19; type: functional
[11] = test system: Staphylococcus epidermidis; test: Antibacterial activity against Staphylococcus epidermidis 829/19; type: functional
[12] = test system: Staphylococcus epidermidis; test: Antibacterial activity against Staphylococcus epidermidis ATCC 12228; type: functional
[13] = Selectivity ratio of MIC for cytotoxicity against human HL-60 cells to MIC for antitrypanosomal activity against bloodstream form of Trypanosoma brucei clone 427-221a; type: toxicity, cell-based
[14] = test system: Staphylococcus epidermidis; test: Antibacterial activity against Staphylococcus epidermidis 851/19; type: functional
Staphylococcus aureus [15] = test: Antibacterial activity against Staphylococcus aureus ATCC 29213; type: functional
Staphylococcus aureus [16] = test: Antibacterial activity against Staphylococcus aureus ATCC 25923; type: functional
[17] = test system: Staphylococcus epidermidis; test: Antibacterial activity against Staphylococcus epidermidis 830/19; type: functional
Staphylococcus aureus [18] = test: Antibacterial activity against Staphylococcus aureus NCTC 4163; type: functional
[19] = test system: Staphylococcus epidermidis; test: Antibacterial activity against Staphylococcus epidermidis 840/19; type: functional
[20] = test system: Staphylococcus epidermidis; test: Antibacterial activity against Staphylococcus epidermidis ATCC 35984; type: functional
Trypanosoma brucei = test: Antitrypanosomal activity against bloodstream form of Trypanosoma brucei clone 427-221a measured after 24 hrs by resazurin dye based assay; type: functional
Pseudomonas aeruginosa [21] = test: Antibacterial activity against Pseudomonas aeruginosa […]; type: functional

Structure (SMILES)	MIC (HL-60) [µM]	GI50 at 24 h [1] [µM]	MIC (Staphylococcus aureus [2]) [µg/mL]	MIC (Escherichia coli [3]) [µg/mL]	MIC (Escherichia coli [4]) [µg/mL]	selectivity ratio [5]	MIC (Pseudomonas aeruginosa [6]) [µg/mL]	MIC [7] [µg/mL]	MIC [8] [µg/mL]	MIC [9] [µg/mL]	MIC [10] [µg/mL]	MIC [11] [µg/mL]	MIC [12] [µg/mL]	selectivity ratio [13]	MIC [14] [µg/mL]	MIC (Staphylococcus aureus [15]) [µg/mL]	MIC (Staphylococcus aureus [16]) [µg/mL]	MIC [17] [µg/mL]	MIC (Staphylococcus aureus [18]) [µg/mL]	MIC [19] [µg/mL]	other results
CO[C@H]([C@H](C)[C@H]1O[C@@]2(CC[C@@](C)([C@H]3CC[C@@](CO)([C@@H]4O[C@@H]([C@H]5O[C@@](O)(COC(=O)NCCCl)[C@H](C)C[C@@H]5C)C[C@@H]4C)O3)O2)C[C@H](O)[C@H]1C)[C@H](C)C(=O)O	100 (≈ 77.8 µg/mL)	22.4	4 (≈ 5.14 µM)	> 256	> 256	6.4	> 256	4 (≈ 5.14 µM)	2 (≈ 2.57 µM)	4 (≈ 5.14 µM)	4 (≈ 5.14 µM)	4 (≈ 5.14 µM)	2 (≈ 2.57 µM)	10	4 (≈ 5.14 µM)	2 (≈ 2.57 µM)	2 (≈ 2.57 µM)	4 (≈ 5.14 µM)	2 (≈ 2.57 µM)	4 (≈ 5.14 µM)	MIC [20]: 8 µg/mL (≈ 10.3 µM); GI50 (Trypanosoma brucei): 3.48 µM; MIC (Trypanosoma brucei): 10 µM (≈ 7.78 µg/mL); MIC (Pseudomonas aeruginosa [21]): > 256 µg/mL
CCCNC(=O)OC[C@]1(O)O[C@H]([C@H]2C[C@H](C)[C@H]([C@]3(CO)CC[C@H]([C@]4(C)CC[C@]5(C[C@H](O)[C@@H](C)[C@@H]([C@@H](C)[C@@H](OC)[C@H](C)C(=O)O)O5)O4)O3)O2)[C@@H](C)C[C@H]1C	100 (≈ 75.8 µg/mL)	24.5	2 (≈ 2.64 µM)	> 256	> 256	8.3	> 256	4 (≈ 5.28 µM)	2 (≈ 2.64 µM)	4 (≈ 5.28 µM)	4 (≈ 5.28 µM)	4 (≈ 5.28 µM)	4 (≈ 5.28 µM)	10	4 (≈ 5.28 µM)	4 (≈ 5.28 µM)	2 (≈ 2.64 µM)	4 (≈ 5.28 µM)	2 (≈ 2.64 µM)	4 (≈ 5.28 µM)	MIC [20]: 8 µg/mL (≈ 10.6 µM); GI50 (Trypanosoma brucei): 2.94 µM; MIC (Trypanosoma brucei): 10 µM (≈ 7.58 µg/mL); MIC (Pseudomonas aeruginosa [21]): > 256 µg/mL
CO[C@H]([C@H](C)[C@H]1O[C@@]2(CC[C@@](C)([C@H]3CC[C@@](CO)([C@@H]4O[C@@H]([C@H]5O[C@@](O)(COC(C)=O)[C@H](C)C[C@@H]5C)C[C@@H]4C)O3)O2)C[C@H](O)[C@H]1C)[C@H](C)C(=O)O	10 (≈ 7.15 µg/mL)	5.51	2 (≈ 2.8 µM)	> 256	> 256	19	> 256	2 (≈ 2.8 µM)	0.25 (≈ 0.35 µM)	1 (≈ 1.4 µM)	1 (≈ 1.4 µM)	1 (≈ 1.4 µM)	1 (≈ 1.4 µM)	10	2 (≈ 2.8 µM)	2 (≈ 2.8 µM)	1 (≈ 1.4 µM)	1 (≈ 1.4 µM)	2 (≈ 2.8 µM)	2 (≈ 2.8 µM)	MIC [20]: 2 µg/mL (≈ 2.8 µM); GI50 (Trypanosoma brucei): 0.29 µM; MIC (Trypanosoma brucei): 1 µM (≈ 0.715 µg/mL); MIC (Pseudomonas aeruginosa [21]): > 256 µg/mL
CCNC(=O)OC[C@]1(O)O[C@H]([C@H]2C[C@H](C)[C@H]([C@]3(CO)CC[C@H]([C@]4(C)CC[C@]5(C[C@H](O)[C@@H](C)[C@@H]([C@@H](C)[C@@H](OC)[C@H](C)C(=O)O)O5)O4)O3)O2)[C@@H](C)C[C@H]1C	100 (≈ 74.4 µg/mL)	85.8	8 (≈ 10.8 µM)	> 256	> 256	28.1	> 256	8 (≈ 10.8 µM)	8 (≈ 10.8 µM)	16 (≈ 21.5 µM)	4 (≈ 5.38 µM)	8 (≈ 10.8 µM)	8 (≈ 10.8 µM)	10	16 (≈ 21.5 µM)	8 (≈ 10.8 µM)	4 (≈ 5.38 µM)	8 (≈ 10.8 µM)	8 (≈ 10.8 µM)	8 (≈ 10.8 µM)	MIC [20]: 16 µg/mL (≈ 21.5 µM); GI50 (Trypanosoma brucei): 3.05 µM; MIC (Trypanosoma brucei): 10 µM (≈ 7.44 µg/mL); MIC (Pseudomonas aeruginosa [21]): > 256 µg/mL
CO[C@H]([C@H](C)[C@H]1O[C@@]2(CC[C@@](C)([C@H]3CC[C@@](CO)([C@@H]4O[C@@H]([C@H]5O[C@@](O)(COC(=O)NC(=O)CCl)[C@H](C)C[C@@H]5C)C[C@@H]4C)O3)O2)C[C@H](O)[C@H]1C)[C@H](C)C(=O)O	10 (≈ 7.92 µg/mL)	3.51	2 (≈ 2.52 µM)	> 256	> 256	746	> 256	32 (≈ 40.4 µM)	8 (≈ 10.1 µM)	16 (≈ 20.2 µM)	8 (≈ 10.1 µM)	16 (≈ 20.2 µM)	2 (≈ 2.52 µM)	100	16 (≈ 20.2 µM)	2 (≈ 2.52 µM)	1 (≈ 1.26 µM)	16 (≈ 20.2 µM)	2 (≈ 2.52 µM)	16 (≈ 20.2 µM)	MIC [20]: 2 µg/mL (≈ 2.52 µM); GI50 (Trypanosoma brucei): 0.0047 µM; MIC (Trypanosoma brucei): 0.1 µM (≈ 0.0792 µg/mL); MIC (Pseudomonas aeruginosa [21]): > 256 µg/mL
